In ChEMBL document CHEMBL1255442, “Assay of colistin and colistin methanesulfonate in plasma and urine by liquid chromatography-tandem mass spectrometry” (Antimicrob Agents Chemother, 2010):

Legend:
Format in all cases: ADME, organism-based
Plasma [1] = test: Stability of the compound in healthy human spiked plasma assessed as initial Colistin methanesulfonate A at 80 mg, iv administered for 60 mins measured post 2 months of incubation at -20 degC by LC-MS/MS assay; settings: in vivo, 1 h, pooled result: one value given for 9 cell lines, strains, targets or settings
Plasma [2] = test: Stability of the compound in healthy human spiked plasma assessed as initial Colistin methanesulfonate A at 80 mg, iv administered for 60 mins measured under acidic pretreatment by LC-MS/MS assay; settings: in vivo, 1 h
Plasma [3] = test: Stability of the compound in healthy human spiked plasma assessed as initial Colistin methanesulfonate A at 80 mg, iv administered for 60 mins measured after 2 freeze-thaw cycles by LC-MS/MS assay; settings: in vivo, 1 h
Plasma [4] = test: Stability of the compound in healthy human spiked plasma assessed as initial Colistin methanesulfonate B at 80 mg, iv administered for 60 mins measured post 2 months of incubation at -20 degC by LC-MS/MS assay; settings: in vivo, 1 h, pooled result: one value given for 9 cell lines, strains, targets or settings
Plasma [5] = test: Stability of the compound in healthy human spiked plasma assessed as initial Colistin methanesulfonate B at 80 mg, iv administered for 60 mins measured under acidic pretreatment by LC-MS/MS assay; settings: in vivo, 1 h
Plasma [6] = test: Stability of the compound in healthy human spiked plasma assessed as initial Colistin methanesulfonate B at 80 mg, iv administered for 60 mins measured after 2 freeze-thaw cycles by LC-MS/MS assay; settings: in vivo, 1 h
Plasma [7] = test: Stability of the compound in healthy human spiked plasma assessed as Colistin methanesulfonate A at 80 mg, iv administered for 60 mins measured post 2 months of incubation at -20 degC by LC-MS/MS assay; settings: in vivo, 1 h
Plasma [8] = test: Stability of the compound in healthy human spiked plasma assessed as Colistin methanesulfonate A at 80 mg, iv administered for 60 mins measured under nonacidic pretreatment by LC-MS/MS assay; settings: in vivo, 1 h
Plasma [9] = test: Stability of the compound in healthy human spiked plasma assessed as Colistin methanesulfonate A at 80 mg, iv administered for 60 mins measured under acidic pretreatment by LC-MS/MS assay; settings: in vivo, 1 h
Plasma [10] = test: Stability of the compound in healthy human spiked plasma assessed as Colistin methanesulfonate A at 80 mg, iv administered for 60 mins measured after 2 freeze-thaw cycles by LC-MS/MS assay; settings: in vivo, 1 h
Plasma [11] = test: Stability of the compound in healthy human spiked plasma assessed as Colistin methanesulfonate A at 80 mg, iv administered for 60 mins measured after 1 hr in room temperature by LC-MS/MS assay; settings: in vivo
Plasma [12] = test: Stability of the compound in healthy human spiked plasma assessed as Colistin methanesulfonate A at 80 mg, iv administered for 60 mins measured after 4 hrs in room temperature by LC-MS/MS assay; settings: in vivo
Plasma [13] = test: Stability of the compound in healthy human spiked plasma assessed as Colistin methanesulfonate A at 80 mg, iv administered for 60 mins measured after 5 hrs at 4 degC by LC-MS/MS assay; settings: in vivo
[14] = Stability of the compound in healthy human spiked urine assessed as Colistin methanesulfonate A at 80 mg, iv administered for 60 mins measured after 2 freeze-thaw cycles by LC-MS/MS assay; settings: in vivo, 1 h
[15] = Stability of the compound in healthy human spiked urine assessed as Colistin methanesulfonate A at 80 mg, iv administered for 60 mins measured at room temperature by LC-MS/MS assay; settings: in vivo, 1 h
[16] = Stability of the compound in healthy human spiked urine assessed as Colistin methanesulfonate A at 80 mg, iv administered for 60 mins measured after 1 hr in room temperature by LC-MS/MS assay; settings: in vivo
[17] = Stability of the compound in healthy human spiked urine assessed as Colistin methanesulfonate A at 80 mg, iv administered for 60 mins measured after 4 hrs in room temperature by LC-MS/MS assay; settings: in vivo
Plasma [18] = test: Stability of the compound in healthy human spiked plasma assessed as Colistin methanesulfonate B at 80 mg, iv administered for 60 mins measured post 2 months of incubation at -20 degC by LC-MS/MS assay; settings: in vivo, 1 h
Plasma [19] = test: Stability of the compound in healthy human spiked plasma assessed as Colistin methanesulfonate B at 80 mg, iv administered for 60 mins measured under nonacidic pretreatment by LC-MS/MS assay; settings: in vivo, 1 h
Plasma [20] = test: Stability of the compound in healthy human spiked plasma assessed as Colistin methanesulfonate B at 80 mg, iv administered for 60 mins measured under acidic pretreatment by LC-MS/MS assay; settings: in vivo, 1 h
Plasma [21] = test: Stability of the compound in healthy human spiked plasma assessed as Colistin methanesulfonate B at 80 mg, iv administered for 60 mins measured after 2 freeze-thaw cycles by LC-MS/MS assay; settings: in vivo, 1 h
Plasma [22] = test: Stability of the compound in healthy human spiked plasma assessed as Colistin methanesulfonate B at 80 mg, iv administered for 60 mins measured after 1 hr in room temperature by LC-MS/MS assay; settings: in vivo
Plasma [23] = test: Stability of the compound in healthy human spiked plasma assessed as Colistin methanesulfonate B at 80 mg, iv administered for 60 mins measured after 4 hrs in room temperature by LC-MS/MS assay; settings: in vivo
Plasma [24] = test: Stability of the compound in healthy human spiked plasma assessed as Colistin methanesulfonate B at 80 mg, iv administered for 60 mins measured after 5 hrs at 4 degC by LC-MS/MS assay; settings: in vivo
[25] = Stability of the compound in healthy human spiked urine assessed as Colistin methanesulfonate B at 80 mg, iv administered for 60 mins measured after 2 freeze-thaw cycles by LC-MS/MS assay; settings: in vivo, 1 h
[26] = Stability of the compound in healthy human spiked urine assessed as Colistin methanesulfonate B at 80 mg, iv administered for 60 mins measured at room temperature by LC-MS/MS assay; settings: in vivo, 1 h
[27] = Stability of the compound in healthy human spiked urine assessed as Colistin methanesulfonate B at 80 mg, iv administered for 60 mins measured after 1 hr in room temperature by LC-MS/MS assay; settings: in vivo
[28] = Stability of the compound in healthy human spiked urine assessed as Colistin methanesulfonate B at 80 mg, iv administered for 60 mins measured after 4 hrs in room temperature by LC-MS/MS assay; settings: in vivo
Plasma [29] = test: Stability of the compound in healthy human spiked plasma assessed as Colistin methanesulfonate A degradation at 80 mg, iv administered for 60 mins measured post 2 months of incubation at -20 degC by LC-MS/MS assay; settings: in vivo, 1 h
Plasma [30] = test: Stability of the compound in healthy human spiked plasma assessed as Colistin methanesulfonate A degradation at 80 mg, iv administered for 60 mins measured under nonacidic pretreatment by LC-MS/MS assay; settings: in vivo, 1 h
Plasma [31] = test: Stability of the compound in healthy human spiked plasma assessed as Colistin methanesulfonate A degradation at 80 mg, iv administered for 60 mins measured under acidic pretreatment by LC-MS/MS assay; settings: in vivo, 1 h
Plasma [32] = test: Stability of the compound in healthy human spiked plasma assessed as Colistin methanesulfonate A degradation at 80 mg, iv administered for 60 mins measured after 2 freeze-thaw cycles by LC-MS/MS assay; settings: in vivo, 1 h
Plasma [33] = test: Stability of the compound in healthy human spiked plasma assessed as Colistin methanesulfonate A degradation at 80 mg, iv administered for 60 mins measured after 1 hr in room temperature by LC-MS/MS assay; settings: in vivo
Plasma [34] = test: Stability of the compound in healthy human spiked plasma assessed as Colistin methanesulfonate A degradation at 80 mg, iv administered for 60 mins measured after 4 hrs in room temperature by LC-MS/MS assay; settings: in vivo
Plasma [35] = test: Stability of the compound in healthy human spiked plasma assessed as Colistin methanesulfonate A degradation at 80 mg, iv administered for 60 mins measured after 5 hrs at 4 degC by LC-MS/MS assay; settings: in vivo
[36] = Stability of the compound in healthy human spiked urine assessed as Colistin methanesulfonate A degradation at 80 mg, iv administered for 60 mins measured after 2 freeze-thaw cycles by LC-MS/MS assay; settings: in vivo, 1 h
[37] = Stability of the compound in healthy human spiked urine assessed as Colistin methanesulfonate A degradation at 80 mg, iv administered for 60 mins measured at room temperature by LC-MS/MS assay; settings: in vivo, 1 h
[38] = Stability of the compound in healthy human spiked urine assessed as Colistin methanesulfonate A degradation at 80 mg, iv administered for 60 mins measured after 1 hr in room temperature by LC-MS/MS assay; settings: in vivo
[39] = Stability of the compound in healthy human spiked urine assessed as Colistin methanesulfonate A degradation at 80 mg, iv administered for 60 mins measured after 4 hrs in room temperature by LC-MS/MS assay; settings: in vivo
Plasma [40] = test: Stability of the compound in healthy human spiked plasma assessed as Colistin methanesulfonate B degradation at 80 mg, iv administered for 60 mins measured post 2 months of incubation at -20 degC by LC-MS/MS assay; settings: in vivo, 1 h
Plasma [41] = test: Stability of the compound in healthy human spiked plasma assessed as Colistin methanesulfonate B degradation at 80 mg, iv administered for 60 mins measured under nonacidic pretreatment by LC-MS/MS assay; settings: in vivo, 1 h
Plasma [42] = test: Stability of the compound in healthy human spiked plasma assessed as Colistin methanesulfonate B degradation at 80 mg, iv administered for 60 mins measured under acidic pretreatment by LC-MS/MS assay; settings: in vivo, 1 h
Plasma [43] = test: Stability of the compound in healthy human spiked plasma assessed as Colistin methanesulfonate B degradation at 80 mg, iv administered for 60 mins measured after 2 freeze-thaw cycles by LC-MS/MS assay; settings: in vivo, 1 h
Plasma [44] = test: Stability of the compound in healthy human spiked plasma assessed as Colistin methanesulfonate B degradation at 80 mg, iv administered for 60 mins measured after 1 hr in room temperature by LC-MS/MS assay; settings: in vivo
Plasma [45] = test: Stability of the compound in healthy human spiked plasma assessed as Colistin methanesulfonate B degradation at 80 mg, iv administered for 60 mins measured after 4 hrs in room temperature by LC-MS/MS assay; settings: in vivo
Plasma [46] = test: Stability of the compound in healthy human spiked plasma assessed as Colistin methanesulfonate B degradation at 80 mg, iv administered for 60 mins measured after 5 hrs at 4 degC by LC-MS/MS assay; settings: in vivo
[47] = Stability of the compound in healthy human spiked urine assessed as Colistin methanesulfonate B degradation at 80 mg, iv administered for 60 mins measured after 2 freeze-thaw cycles by LC-MS/MS assay; settings: in vivo, 1 h
[48] = Stability of the compound in healthy human spiked urine assessed as Colistin methanesulfonate B degradation at 80 mg, iv administered for 60 mins measured at room temperature by LC-MS/MS assay; settings: in vivo, 1 h
[49] = Stability of the compound in healthy human spiked urine assessed as Colistin methanesulfonate B degradation at 80 mg, iv administered for 60 mins measured after 1 hr in room temperature by LC-MS/MS assay; settings: in vivo
[50] = Stability of the compound in healthy human spiked urine assessed as Colistin methanesulfonate B degradation at 80 mg, iv administered for 60 mins measured after 4 hrs in room temperature by LC-MS/MS assay; settings: in vivo

Sequence: COLISTIMETHATE SODIUM
- Stability (Plasma [1]): 3.746 µg/mL
- Stability (Plasma [2]): 7.492 µg/mL
- Stability (Plasma [3]): 0.937 µg/mL
- Stability (Plasma [4]): 1.254 µg/mL
- Stability (Plasma [5]): 2.508 µg/mL
- Stability (Plasma [6]): 0.313 µg/mL
- Stability (Plasma [7]): Unstable
- Stability (Plasma [8]): Unstable
- Stability (Plasma [9]): 1.626 µg/mL
- Stability (Plasma [10]): Unstable
- Stability (Plasma [11]): 0.123 µg/mL
- Stability (Plasma [12]): 0.519 µg/mL
- Stability (Plasma [13]): Unstable
- Stability [14]: 0.746 µg/mL
- Stability [15]: 0.614 µg/mL
- Stability [16]: 0.835 µg/mL
- Stability [17]: 1.056 µg/mL
- Stability (Plasma [18]): Unstable
- Stability (Plasma [19]): Unstable
- Stability (Plasma [20]): 0.485 µg/mL
- Stability (Plasma [21]): Unstable
- Stability (Plasma [22]): 0.029 µg/mL
- Stability (Plasma [23]): 0.175 µg/mL
- Stability (Plasma [24]): Unstable
- Stability [25]: 0.18 µg/mL
- Stability [26]: 0.143 µg/mL
- Stability [27]: 0.211 µg/mL
- Stability [28]: 0.268 µg/mL
- Stability (Plasma [29]): Stable
- Stability (Plasma [30]): Stable
- Stability (Plasma [31]): 32.5%
- Stability (Plasma [32]): Stable
- Stability (Plasma [33]): 3.3%
- Stability (Plasma [34]): 13.9%
- Stability (Plasma [35]): Stable
- Stability [36]: 19.9%
- Stability [37]: 16.4%
- Stability [38]: 22.3%
- Stability [39]: 29.2%
- Stability (Plasma [40]): Stable
- Stability (Plasma [41]): Stable
- Stability (Plasma [42]): 29.1%
- Stability (Plasma [43]): Stable
- Stability (Plasma [44]): 2.3%
- Stability (Plasma [45]): 14%
- Stability (Plasma [46]): Stable
- Stability [47]: 14.4%
- Stability [48]: 11.6%
- Stability [49]: 16.8%
- Stability [50]: 21.4%
